Where two headings read alike, the source gives them in different places.
Tests used:
[1] = molecular target: T1, 5-lipoxygenase (Rattus norvegicus, UniProt P12527); assay: 5-Lipoxygenase inhibitive activity (production of 5-HETE by RBL-1 cell supernatant); type: biochemical; conditions: for IC50: inhibition of 5-HETE production, 37° C., 10 minutes, 100 μM arachidonic acid
T1 construct: ultracentrifugation at 100,000×g for 90 minutes to collect a supernatant, which was served as a 5-lipoxygenase enzyme liquid; host or cells: RBL-1 (rat basophilic leukemia cells), 100,000×g supernatant of sonicated cells
T1 sequence (P12527 1-673): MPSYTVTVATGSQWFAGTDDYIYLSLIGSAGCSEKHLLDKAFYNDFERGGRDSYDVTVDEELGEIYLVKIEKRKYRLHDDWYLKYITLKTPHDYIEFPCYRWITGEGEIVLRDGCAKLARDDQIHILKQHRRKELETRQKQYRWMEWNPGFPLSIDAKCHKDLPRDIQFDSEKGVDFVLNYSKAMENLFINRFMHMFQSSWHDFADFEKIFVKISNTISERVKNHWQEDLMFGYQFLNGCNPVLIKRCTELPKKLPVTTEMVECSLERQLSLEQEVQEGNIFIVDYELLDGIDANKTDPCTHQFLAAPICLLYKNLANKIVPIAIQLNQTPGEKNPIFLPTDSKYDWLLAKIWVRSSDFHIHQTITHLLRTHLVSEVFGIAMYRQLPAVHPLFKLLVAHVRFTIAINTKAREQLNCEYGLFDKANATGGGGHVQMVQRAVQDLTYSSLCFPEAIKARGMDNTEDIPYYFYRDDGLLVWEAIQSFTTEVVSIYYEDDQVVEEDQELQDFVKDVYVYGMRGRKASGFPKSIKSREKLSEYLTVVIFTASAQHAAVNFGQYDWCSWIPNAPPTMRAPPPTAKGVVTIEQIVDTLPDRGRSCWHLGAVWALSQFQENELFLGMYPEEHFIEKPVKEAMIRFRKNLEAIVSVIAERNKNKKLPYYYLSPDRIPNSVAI
Experimental: 2.5×10^7 RBL-1 cells (rat basophilic leukemia cells, purchased from Dainippon Pharmaceutical Co. Ltd.) were washed twice with 0.1M Tris-HCl buffer (pH 7.5) and ultrasonicated. The pulverized cell liquid was subjected to ultracentrifugation at 100,000×g for 90 minutes to collect a supernatant, which was served as a 5-lipoxygenase enzyme liquid in the test. […] After terminating the reaction by an addition of 50 μl of 1N HCl, the reaction mixture was extracted with 6 ml of ethyl acetate.

[2] = test system: SRS-A production; conditions: Prostaglandins 26, 955-973 (1983); read-out: 50% inhibition concentration (known agent, literature); cited from earlier work
[3] = test system: edema in paws of rats; assay: Edema inhibitive activity in rat soles (arachidonate-induced paw edema); type: in vivo, rat (Wister male); conditions: 200 mg/kg oral
Experimental: In vivo anti-inflammatory action of Compound 1 was tested using edema in paws of rats as a model.
Wister male rats (Japan Charles River), weighing 150-170 g, 6 week age, were fasted from the previous day of the test for serving to the experiment.
Samples (10 ml/kg) were orally administered to the control (solvent: 0.5% gum arabica) group and Compound 1 (200 mg/kg body weight) test group. After 2 hours, 100 μl of a sodium arachidonate solution (5 mg/ml, 0.1M carbonate buffer, pH 8.4) was injected in the paw to determine the increase of the edema volume after 1 hour. The increase of the edema volume was determined by subtracting the value measured 1 hour before the administration of arachidonate from the value measured 1 hour after the administration. The foot volume increase (ml, means±S.D.) in the control group was 0.822±0.131 (n=10), whereas that in Compound 1 test group was 0.664±0.104 (n=8).

[4] = test system: mice; assay: Single administration toxicity test in mice; conditions: mouse, in vivo
Experimental: Compound 1 was intravenously or intraperitoneally administered one time to groups of ICR male mice (age: 5 weeks, purchased from Japan SLC Co.), each group consisting of 5, to observe the death of the mice in 14 days. […] Thus, the fatal dose of Compound 1 in single intravenous administration to mice was above 20 mg/kg. […] The fatal dose of Compound 1 in single intraperitoneal administration to mice was about 100 mg/kg or more.

[5] = test system: SRS-A production; assay: SRS-A production inhibitive activity (sensitized guinea pig lung fragments, ileum bioassay); type: cell-based, guinea pig (Hartley male)
Experimental: LTC4 and LTD4 which consist of SRS-A are very strong chemical mediators of allergic bronchial asthma and the like. The inhibitory effect of Compound 1 against the production of SRS-A was therefore biologically measured.
A suspension of 1 mg of egg white albumin and 0.5 ml of complete Freund's adjuvant was intraperitoneally injected to Hartley male guinea pigs. The same antigen liquid was again injected 2 or 3 weeks thereafter to effect the sensitization. The sensitized guinea pigs were sacrificed by bleeding, and the lung was washed with a Tyrode's solution and cut into pieces to prepare lung fragment specimens. 300 mg of the lung fragments were floated on 2.8 ml of the Tyrode's solution. After shaking the solution at 37° C. for 20 minutes, 0.1 ml of Compound 1 was added. Shaking this solution was carried out for a further 5 minutes, followed by the addition of 0.1 ml of an egg white albumin solution (the ultimate antigen concentration: 1 mg/ml). After the reaction at 37° C. for 20 minutes, 12 ml of methanol was added and the mixture was stirred. The reaction mixture was centrifuged, the supernatant was concentrated under reduced pressure to dryness, and the dry solid was dissolved into 1 ml of water to biologically measure LTs (SRS-A) contained therein.
The determination of the quantity of SRS-A produced was carried out by using the ileum enucleated from Hartley male guinea pigs and counting the constriction of the ileum in the presence of 10^-6 M Atropine and Pyrilamine. A standard curve for the standard sample was prepared based on LTD4 to determine the amount of SRS-A produced by the effect of Compound 1 as the amount of LTD4.

[6] = test system: auricle edema induced with arachidonic acid; assay: Auricle edema inhibitive activity in mice (induced with arachidonic acid); type: in vivo, mouse (ICR male); conditions: topical
Experimental: In vivo anti-inflammatory action of Compound 1 was tested using auricle edema in mice as a model.
ICR male mice (Japan Charles River), weighing 29.9-40.4 g, 8 week age, were anesthetized with pentobarbital (Trademark: Nembutal, manufactured by Dainabott-Dainippon Pharmaceutical Co., Ltd.) to measure the thickness of the right ear with a dial thickness gauge. 20 μl of Compound 1 and control compound (acetone) were applied (the amount hereinafter specified) to the inside of the right ear with microsyringe, and, 30 minutes later, 2 mg of arachidonic acid was applied in the same manner to the inside of the right ear. The thickness of the right ear was measured 60 minutes after the application of arachidonic acid. Mice were then sacrificed by vertebral cervical dislocation and a circle with a diameter of 7 mm was cut out from the center of the right ear with an ear punch to measure its weight. The test was performed twice; the amounts of Compound 1 applied were 4 mg, 1 mg, 0.4 mg, 0.04 mg, and 0.004 mg per ear for the first test and 1 mg, 0.2 mg, 0.04 mg, 0.008 mg, and 0.0016 mg per ear for the second test. Both Compound 1 and arachidonic acid were used as dissolved in acetone.
The results are shown in FIG. 8-1 (the first test) and FIG. 8-2 (the second test). […] The 50% effective dose (ED50) in the two experiments were very close to each other, 0.03-0.08 mg/ear.

For “2-(1,3-pentadienyl)-2,3-dihydro-5-hydroxy(or methoxy)-7-methoxy(or hydroxy)benzofuran [Compound 3]”, the IC50 [1] was 1500 nM.
For CC1=C(C)C(=O)C(CCCCC#CCCCC#CCO)=C(C)C1=O [AA-861], the IC50 [2] is given as 1800 nM.
For C/C=C/C=C/C1Cc2cc(O)cc(O)c2O1 (stereo not drawn) [Compound 1, 2-(1-tans, 3-trans-pentadienyl)-2,3-dihydro-5,7-dihydroxybenzofuran], the “foot volume increase (means±S.D.)” value ([3]; 2 h before arachidonate, 1 h after, n=8, control 0.822±0.131 (n=10)) was 0.664 ± 0.104 mL, the edema inhibitory effect ([3]; versus control group) was 19.2% and the “5-lipoxygenase inhibitory activity (in words)” value [1] was “specific 5-lipoxygenase inhibitory activity”. The IC50 [1] was 2000 nM, the “death of mice, intraperitoneal” value [4] was “no death in the mice occurred” and the “fatal dose, single intraperitoneal administration” value ([4]; ip) was no less than 100 mg/kg. For the same compound, the “fatal dose, single intravenous administration” value ([4]; iv) was “above 20 mg/kg”, the “death of mice, intravenous” value ([4]; iv, 20 mg/kg) was “no mice were dead” and the “general conditions, body weight and autopsy, intravenous” value ([4]; iv, 20 mg/kg) was “No abnormality was observed”. The “SRS-A inhibitory effect compared with AA-861 (in words)” value ([5]; AA-861: 1.8×10^-6 M (literature)) was “equivalent to a known 5-lipoxygenase inhibitory agent, AA-861”, the IC50 ([5]; Cavia porcellus, 20 min, sensitized guinea pig lung fragments, egg white albumin 1 mg/ml, 37° C., 20 min, read-out: 50% inhibition concentration, SRS-A production) was 4000 nM and the “SRS-A production inhibitory effect (in words)” value ([5]; guinea pig lung) was “dependent on the concentration”. For the same compound, the “50% effective dose (ED50)” value ([6]; inside of right ear, 30 min before 2 mg arachidonic acid, two experiments) was 0.03-0.08 mg/ear and the “inhibitory effect against auricle edema (in words)” value ([6]; ear thickness and weight, FIG. 8-1, 8-2) was “dose dependent inhibitory effect”.
With CCCCCC1Cc2cc(O)cc(O)c2O1 (centres unmarked) [Compound 2, 2-n-pentyl-2,3-dihydro-5,7dihydroxybenzofuran] the IC50 [1] was 1200 nM.
